{
  "source": "patent US20230183808A1",
  "about": "“Methods of Detecting and Treating Cancers Characterized by Loss of miR15 and miR16 Expression” (priority 2020, published 2023)",
  "key": {"[1]": {"test_system": "miR-15a", "experiment": "miR-15a expression by qRT-PCR after 5-Aza-2′-deoxycytidine treatment", "format": "cell-based, human", "conditions": "5 µM (MEG-01, THP-1, OCI-AML3) or 2.5 µM (U-937, MV4-11), 4 days; in a few cell lines; vs untreated; FIG. 5D", "experimental": "(§1) FIGS. 5A-5F show genetic and epigenomic screening of AML cell lines. […] TBP was used as a loading control (TATA-binding protein). […] In FIGS. 5C and 5E, at least 3 clones are analyzed for each cell line. The CpG island is pictured and each vertical bar represent a single CpG (depicted by *) or a single non-CpG site. Black (CpG site) and grey (non-CpG site) squares represent methylated CpG and white squares represent unmethylated CpG.\n(§2) Total RNA was isolated from human samples and cell lines using TRIzol (Invitrogen, Carlsbad, CA), following the provided instructions. For qRT-PCR, TaqMan miRNA assays (miR-15a#000389, miR-15b#000390, miR-16#000391, (Thermo Fisher Scientific, Waltham, MA)) were used to detect mature miRNAs. For all RNAs from AML patients, reverse transcription reactions were performed using the TaqMan miRNA Reverse Transcription Kit (Applied Biosystems, Foster City, CA) and a RT primer pool by pooling all miRNA-specific stem-loop primers of interest. […]\n(§3) MEG-01, THP-1 and OCI-AML3 cells were treated with 5 µM 5-Aza-2′-deoxycytidine (5-Aza-dC) (Sigma-Aldrich, St. Louis, MO), whereas U-937 and MV4-11 cells were treated with 2.5 µM 5-Aza-dC. After 4 days of treatments (fresh drug was added every 24 hour), cells were harvested and total RNA was isolated and analyzed for qRT-PCR analysis. […]"}, "[2]": {"test_system": "miR-15b", "experiment": "miR-15b expression by qRT-PCR after 5-Aza-2′-deoxycytidine treatment", "format": "cell-based, human", "conditions": "5 µM (MEG-01, THP-1, OCI-AML3) or 2.5 µM (U-937, MV4-11), 4 days; in a few cell lines; vs untreated; FIG. 5F", "experimental": "as §1, §2, §3"}},
  "data": [
    {"smiles": "Nc1ncn([C@H]2C[C@H](O)[C@@H](CO)O2)c(=O)n1", "note": "[5-Aza-dC, 5-Aza-2′-deoxycytidine]", "values": [
      {"measurement": "expression of silenced miR-15a after treatment", "setting": "[1]", "result": "increased expression"},
      {"measurement": "expression of silenced miR-15b after treatment", "setting": "[2]", "result": "increased expression"}
    ]}
  ]
}
